This note sets out measurements from patent US9284321B2, “Piperazino[1,2-a]indol-1-ones and [1,4]diazepino[1,2-a]indol-1-one” (Hoffmann-La Roche Inc., priority 2012, dated 2016).

Data set [1] deals with human embryonic stem cell derived neural stem cells (NSCs). In words: Neural Stem Cell Proliferation Assay (neurogenesis assay, ATP levels by CellTiterGlo). The format is cell-based. Conditions: 96 h, compound concentration at which 150% activity of control (100%) is reached, NSC proliferation by ATP level after 4 days incubation, dose response 8 μM to 8 nM. How it is done: Neurogenic properties of small molecules are determined based on the proliferation of human embryonic stem cell derived neural stem cells (NSCs) which were derived via a dual smad inhibition as previously described (Chambers, S. M., et al., Highly efficient neural conversion of human ES and iPS cells by dual inhibition of SMAD signaling, Nature biotechnology, 2009. 27(3): p. 275-80.)
Compounds respond is measured by the increase in cells based on ATP levels
(Promega:CellTiterGlo®) after an incubation period of 4 days.
NSCs are thawed and expanded over 3 passages. On the 14th day, NSCs are seeded in Polyornithin/Laminin coated 384 well plates at a cell density of 21′000 cells/cm^2 in a media volume of 38 μl.
4 hours after cell seeding, compound solutions are added at a volume of 2 μl. Stock solutions of the compounds (water, 5% DMSO) are diluted to obtain a dose response (11 points, dilution factor is 2), ranging from 8 μM to 8 nM. Controls are run to consistently determine the neurogenic properties of the cells:
Negative (neutral) control is cell culture Media (final DMSO concentration: 0.25%).
• 1. cell culture Media+100 ng/ml FGF2 (final DMSO concentration: 0.1%) • 2. cell culture Media+20 ng/ml EGF (final DMSO concentration: 0.1%) • 3. cell culture Media+100 ng/ml Wnt3a (final DMSO concentration: 0.1%)
After 4 days incubation at 37° C., 5% CO2, the amount of ATP per well is quantified. The ATP concentration is proportional to the cell number. ATP is quantified by using the Promega CellTiterGlo® kit. The CellTiterGlo® reagents contain a cell lysis buffer, a thermo stable luciferase (UltraGlo™ recombinant luciferase), magnesium and luciferin. Luciferin reacts with ATP producing oxyluciferin, AMP and light. The luminescence signal is proportional to the ATP content.
The value of negative (neutral) control is determined for each assay plate by taking the average of 16 negative control wells. The neurogenic compound response is calculated for each compound as (compound/Negative Control)*100.
The values of EC150 from the dose response curve are determined for each test compound. The EC150 is the compound concentration at which 150% activity of control (100%) is reached.
For orientation: In ATP-based viability assays light output follows the ATP content of the culture.

As to `O=C1NCCn2c1cc1cc(Cl)cc(-c3ccc(F)cc3)c12` [Example 51, 8-Chloro-6-(4-fluoro-phenyl)-3,4-dihydro-2H-pyrazino[1,2-a]indol-1-one], the melting point (in general, the temperature of the solid-liquid transition) worked out at 298 °C. Also, the EC (150% of control) in data set [1] stood at 0.098 µM.

Compound `Cc1c2n(c3c(-c4ccccc4)cc(C#N)cc13)CCNC2=O` [Example 241, 10-Methyl-1-oxo-6-phenyl-3,4-dihydro-2H-pyrazino[1,2-a]indole-8-carbonitrile] displayed a melting point of 253 °C. The EC (150% of control) in data set [1] amounted to 0.062 µM.

With `N#Cc1ccc(-c2cc(C#N)cc3cc4n(c23)CCNC4=O)cc1` [Example 176, 6-(4-Cyano-phenyl)-1-oxo-1,2,3,4-tetrahydro-pyrazino[1,2-a]indole-8-carbonitrile], the melting point turned out to be 363 °C. Further, in data set [1], the EC (150% of control) turned out to be 0.17 µM.

Take `N#Cc1cc(-c2ccc(F)cc2)c2c(c1)cc1n2CCNC1=O` [Example 78, 6-(4-Fluoro-phenyl)-1-oxo-1,2,3,4-tetrahydro-pyrazino[1,2-a]indole-8-carbonitrile]: the melting point came out at 297.5 °C. Further, the EC (150% of control) in data set [1] came out at 0.012 µM.

`Cc1c2n(c3c(-c4cncnc4)cc(C#N)cc13)CCNC2=O` [Example 283, 10-Methyl-1-oxo-6-pyrimidin-5-yl-3,4-dihydro-2H-pyrazino[1,2-a]indole-8-carbonitrile] displayed a melting point of 325 °C. The same compound gave an EC (150% of control) in data set [1] of 1.61 µM.

With `COc1ccc(-c2cc(C)cc3cc4n(c23)CCNC4=O)cc1` [Example 61, 6-(4-Methoxy-phenyl)-8-methyl-3,4-dihydro-2H-pyrazino[1,2-a]indol-1-one], the melting point was found to be 245 °C. Also, in data set [1], the EC (150% of control) turned out to be 0.059 µM.

`COc1ccc(-c2c(F)c(F)cc3cc4n(c23)CCNC4=O)cc1` [Example 39, 7,8-Difluoro-6-(4-methoxy-phenyl)-3,4-dihydro-2H-pyrazino[1,2-a]indol-1-one] registered a melting point of 274.5 °C. Also, the EC (150% of control) in data set [1] worked out at 0.005 µM.

Take `O=C1NCCn2c1cc1cc(F)cc(-c3ccccc3)c12` [Example 12, 8-Fluoro-6-phenyl-3,4-dihydro-2H-pyrazino[1,2-a]indol-1-one]: the melting point is 236.5 °C. The compound also returned an EC (150% of control) in data set [1] of 0.037 µM.

For `COc1ccc(-c2c(F)c(F)cc3cc4n(c23)CCCNC4=O)cc1` [Example 41, 8,9-Difluoro-7-(4-methoxy-phenyl)-2,3,4,5-tetrahydro-[1,4]diazepino[1,2-a]indol-1-one], the melting point is 182.5 °C. In data set [1], this compound displayed an EC (150% of control) of 0.006 µM.

`Cc1c2n(c3c(-c4ccc(F)c(F)c4F)cc(Cl)cc13)CCNC2=O` [Example 153, 8-Chloro-10-methyl-6-(2,3,4-trifluoro-phenyl)-3,4-dihydro-2H-pyrazino[1,2-a]indol-1-one] yielded a melting point of 205.5 °C. In data set [1], the EC (150% of control) was determined as 0.029 µM.

Compound `Cc1c2n(c3c(-c4ccc(C(C)C)cc4)cc(Cl)cc13)CCNC2=O` [Example 106, 8-Chloro-6-(4-isopropyl-phenyl)-10-methyl-3,4-dihydro-2H-pyrazino[1,2-a]indol-1-one] displayed a melting point of 194.5 °C. The EC (150% of control) in data set [1] came to 0.05 µM.

`COc1ccc(-c2cc(C)cc3cc4n(c23)CCCNC4=O)cc1` [Example 56, 7-(4-Methoxy-phenyl)-9-methyl-2,3,4,5-tetrahydro-[1,4]diazepino[1,2-a]indol-1-one] gave a melting point of 208 °C. The compound also came in with an EC (150% of control) in data set [1] of 0.35 µM.

The compound `Cc1c2n(c3c(-c4ccc(C(C)(C)C)cc4)cc(Cl)cc13)CCNC2=O` [Example 118, 6-(4-tert-Butyl-phenyl)-8-chloro-10-methyl-3,4-dihydro-2H-pyrazino[1,2-a]indol-1-one] gave a melting point of 252 °C. In addition, the EC (150% of control) in data set [1] was 0.15 µM.

Compound `Cc1c2n(c3c(-c4ccc(F)cc4)cc(C#N)cc13)CCNC2=O` [Example 162, 6-(4-Fluoro-phenyl)-10-methyl-1-oxo-1,2,3,4-tetrahydro-pyrazino[1,2-a]indole-8-carbonitrile] had a melting point of 292 °C. Also, in data set [1], the EC (150% of control) was determined as 0.021 µM.

The compound `Cc1c2n(c3c(-c4ccnc(Cl)c4)cc(Cl)cc13)CCNC2=O` [Example 119, 8-Chloro-6-(2-chloro-pyridin-4-yl)-10-methyl-3,4-dihydro-2H-pyrazino[1,2-a]indol-1-one] came in with a melting point of 270 °C. For the same compound, the EC (150% of control) in data set [1] came out at 0.16 µM.

`Cc1c2n(c3c(-c4cncnc4)cc(F)cc13)CCNC2=O` [Example 155, 8-Fluoro-10-methyl-6-pyrimidin-5-yl-3,4-dihydro-2H-pyrazino[1,2-a]indol-1-one] yielded a melting point of 289 °C. The compound further registered an EC (150% of control) in data set [1] of 0.57 µM.

For `Cc1c2n(c3c(-c4ccc([N+](=O)[O-])cc4)cc(C#N)cc13)CCNC2=O` [Example 276, 10-Methyl-6-(4-nitrophenyl)-1-oxo-3,4-dihydro-2H-pyrazino[1,2-a]indole-8-carbonitrile], the melting point was 312 °C. Also, the EC (150% of control) in data set [1] came out at 0.11 µM.

For `N#Cc1cc(-c2ccc(N)nc2)c2c(c1)cc1n2CCCNC1=O` [Example 264, 7-(6-Aminopyridin-3-yl)-1-oxo-2,3,4,5-tetrahydro-[1,4]diazepino[1,2-a]indole-9-carbonitrile], the melting point was 314.5 °C.

`Cc1c2n(c3c(-c4cc(Cl)cc(Cl)c4)cc(C#N)cc13)CCNC2=O` [Example 293, 6-(3,5-Dichlorophenyl)-10-methyl-1-oxo-3,4-dihydro-2H-pyrazino[1,2-a]indole-8-carbonitrile] displayed a melting point of 347 °C.

The compound `Cc1c2n(c3c(-c4cncnc4)cc(C#N)cc13)CCCNC2=O` [Example 299, 11-Methyl-1-oxo-7-pyrimidin-5-yl-2,3,4,5-tetrahydro-[1,4]diazepino[1,2-a]indole-9-carbonitrile] had a melting point of 304 °C.

In turn, `N#Cc1cc(-c2ccc(Cl)nc2)c2c(c1)cc1n2CCCNC1=O` [Example 265, 7-(6-Chloropyridin-3-yl)-1-oxo-2,3,4,5-tetrahydro-[1,4]diazepino[1,2-a]indole-9-carbonitrile] showed a melting point of 204 °C.

Consider `Cc1c2n(c3c(-c4cccc(Cl)c4)cc(C#N)cc13)CCNC2=O` [Example 268, 6-(3-Chlorophenyl)-10-methyl-1-oxo-3,4-dihydro-2H-pyrazino[1,2-a]indole-8-carbonitrile], for which the melting point worked out at 254 °C.

Regarding `N#Cc1cc(-c2cccnc2)c2c(c1)cc1n2CCCNC1=O` [Example 263, 1-Oxo-7-pyridin-3-yl-2,3,4,5-tetrahydro-[1,4]diazepino[1,2-a]indole-9-carbonitrile], the melting point came to 252 °C.

The compound `N#Cc1cc(-c2cncnc2)c2c(c1)cc1n2CCCNC1=O` [Example 273, 1-Oxo-7-pyrimidin-5-yl-2,3,4,5-tetrahydro-[1,4]diazepino[1,2-a]indole-9-carbonitrile] showed a melting point of 277 °C.

`N#Cc1cc(-c2cc(Cl)cc(Cl)c2)c2c(c1)cc1n2CCCNC1=O` [Example 286, 7-(3,5-Dichlorophenyl)-1-oxo-2,3,4,5-tetrahydro-[1,4]diazepino[1,2-a]indole-9-carbonitrile]: the melting point was found to be 244 °C.

Take `N#Cc1cc(-c2ccc(F)nc2)c2c(c1)cc1n2CCCNC1=O` [Example 272, 7-(6-Fluoropyridin-3-yl)-1-oxo-2,3,4,5-tetrahydro-[1,4]diazepino[1,2-a]indole-9-carbonitrile]: the melting point amounted to 264.5 °C.

With `CC(C)(C)c1ccc(-c2cc(C#N)cc3cc4n(c23)CCCNC4=O)cc1` [Example 270, 7-(4-tert-Butylphenyl)-1-oxo-2,3,4,5-tetrahydro-[1,4]diazepino[1,2-a]indole-9-carbonitrile], the melting point came to 215 °C.

Compound `N#Cc1cc(-c2ccc(Cl)c(C(F)(F)F)c2)c2c(c1)cc1n2CCCNC1=O` [Example 254, 7-[4-Chloro-3-(trifluoromethyl)phenyl]-1-oxo-2,3,4,5-tetrahydro-[1,4]diazepino[1,2-a]indole-9-carbonitrile] registered a melting point of 224.5 °C.

In data set [1], `Cc1c2n(c3c(-c4ccc(Cl)nc4)cc(F)cc13)CCNC2=O` [Example 144, 6-(6-Chloro-pyridin-3-yl)-8-fluoro-10-methyl-3,4-dihydro-2H-pyrazino[1,2-a]indol-1-one] gave an EC (150% of control) of 0.081 µM.
